In US10683299B2, “Pyrazolopyrazine and triazolopyrazine compounds for the treatment of infectious diseases” (Hoffmann-La Roche Inc., priority 2017, dated 2020):
Where two headings read alike, the source gives them in different places.

Tested on: HBV replication in HepG2.2.15 cells
Test: HBV inhibition assay in HepG2.2.15 cells (extracellular HBV DNA by qPCR)
Assay type: cell-based, Hepatitis B virus
Settings: five days after compound treatment, extracellular HBV DNA in culture supernatant by qPCR, read-out: EC50 (effective compound concentration at which HBV replication was inhibited by 50%)
From the text: HepG2.2.15 is a stably-transfected cell line containing the HBV genome. It is derived from the hepatoblastoma cell line Hep G2 (American Type Culture Collection, ATCC® HB-8065™) by the published procedures described in reference: M A Selles et al. Proc. Natl. Acad. Sci. USA 1987, 84, 1005-1009. The cell line was maintained in Dulbecco's modified Eagle's medium and nutrient mixture F-12 (DMEM/F-12, Gibco, Cat. #: 11320-033) supplemented with 10% fetal bovine serum (Gibco, Cat. #:10099-141), 100 U/mL penicillin, 100 μg/mL streptomycin (Gibco, Cat. #:15140-122), and 0.3 mg/mL of G418 Sulfate (Gibco, Cat. #: 10131-027).
HepG2.2.15 cells were seeded into 96-well plates at a density of 3×10^4 cells per well in culture media of 100 μL DMEM/F-12 supplemented with 2.5% fetal bovine serum, 100 U/mL penicillin, 100 μg/mL streptomycin and cultured overnight at 37° C. The test compounds were serially half-log diluted in DMSO, then diluted 100 times in culture media. 100 μL culture media containing diluted compounds were added into the plates to reach 0.5% final concentration of DMSO in every well. Five days after compound treatment, culture supernatant was collected for further analysis.
For quantitative PCR detection of extracellular HBV DNA, culture supernatant was processed by 500 μg/mL Proteinase K (Sigma, Cat. #:P2308) digestion at 50° C. for 1 hour. After heat inactivation of the enzyme at 95° C. for 15 minutes, the samples were subjected to HBV DNA quantification by qPCR. The effective compound concentration at which HBV replication was inhibited by 50% (EC50) was determined.

[1] = Hepatitis B virus, HepG2.2.15, 120 h

SMILES	EC50 [1]	EC50
C[C@H]1Cn2ncc(N3CCN(C)S3(=O)=O)c2CN1C(=O)Nc1cc(F)c(F)c(F)c1 [Example 20, (6S)-6-methyl-3-(5-methyl-1,1-dioxo-1,2,5-thiadiazolidin-2-yl)-N-(3,4,5-trifluorophenyl)-6,7-dihydro-4H-pyrazolo[1,5-a]pyrazine-5-carboxamide]	0.017 µM	
C[C@H]1Cn2ncc(N3CCOCS3(=O)=O)c2CN1C(=O)Nc1cc(F)c(F)c(F)c1 [Example 24, (6S)-3-(3,3-dioxo-1,3,4-oxathiazinan-4-yl)-6-methyl-N-(3,4,5-trifluorophenyl)-6,7-dihydro-4H-pyrazolo[1,5-a]pyrazine-5-carboxamide]	0.011 µM	
CC1Cn2nnc(N3CCCS3(=O)=O)c2CN1C(=O)Nc1cc(F)c(F)c(F)c1 (single isomer, unassigned) [Example 33-2, 3-(1,1-dioxo-1,2-thiazolidin-2-yl)-6-methyl-N-(3,4,5-trifluorophenyl)-6,7-dihydro-4H-triazolo[1,5-a]pyrazine-5-carboxamide]		0.41 µM
C[C@H]1Cn2ncc(N3CC4CCC(=O)N4CS3(=O)=O)c2CN1C(=O)Nc1cc(F)c(F)c(F)c1 (stereo partly drawn) [Example 14, (6S)-6-methyl-N-(3,4,5-trifluorophenyl)-3-(3,3,6-trioxo-4,7,8,8a-tetrahydro-1H-pyrrolo[2,1-d][1,2,5]thiadiazin-2-yl)-6,7-dihydro-4H-pyrazolo[1,5-a]pyrazine-5-carboxamide]	0.028 µM	
C[C@H]1Cn2ncc(N3CCCS3(=O)=O)c2CN1C(=O)Nc1ccc2ncsc2c1 [Example 9, (6S)—N-(1,3-benzothiazol-6-yl)-3-(1,1-dioxo-1,2-thiazolidin-2-yl)-6-methyl-6,7-dihydro-4H-pyrazolo[1,5-a]pyrazine-5-carboxamide]	0.26 µM	
CC1C(O)CS(=O)(=O)N1c1cnn2c1CN(C(=O)Nc1ccnc(C(F)F)c1)[C@@H](C)C2 (stereo partly drawn) [Example 29, (6S)—N-[2-(difluoromethyl)-4-pyridyl]-3-(4-hydroxy-3-methyl-1,1-dioxo-1,2-thiazolidin-2-yl)-6-methyl-6,7-dihydro-4H-pyrazolo[1,5-a]pyrazine-5-carboxamide]	0.32 µM	
C[C@H]1Cn2ncc(N3[C@@H](C)CS3(=O)=O)c2CN1C(=O)Nc1cc(F)c(F)c(F)c1 [Example 21, (6S)-6-methyl-3-[(3S)-3-methyl-1,1-dioxo-thiazetidin-2-yl]-N-(3,4,5-trifluorophenyl)-6,7-dihydro-4H-pyrazolo[1,5-a]pyrazine-5-carboxamide]	0.046 µM	
COC1CS(=O)(=O)N(c2cnn3c2CN(C(=O)Nc2ccnc(C(F)F)c2)[C@@H](C)C3)C1C (stereo partly drawn) [Example 32-1, (6S)—N-[2-(difluoromethyl)-4-pyridyl]-3-(4-methoxy-3-methyl-1,1-dioxo-1,2-thiazolidin-2-yl)-6-methyl-6,7-dihydro-4H-pyrazolo[1,5-a]pyrazine-5-carboxamide]	0.17 µM	
C[C@H]1Cn2ncc(N3CCCS3(=O)=O)c2CN1C(=O)Nc1ccnc(Cl)c1 [Example 2, (6S)—N-(2-chloro-4-pyridyl)-3-(1,1-dioxo-1,2-thiazolidin-2-yl)-6-methyl-6,7-dihydro-4H-pyrazolo[1,5-a]pyrazine-5-carboxamide]	0.079 µM	
C[C@H]1Cn2ncc(N3CCCS3(=O)=O)c2CN1C(=O)Nc1ccccc1F [Example 8, (6S)-3-(1,1-dioxo-1,2-thiazolidin-2-yl)-N-(2-fluorophenyl)-6-methyl-6,7-dihydro-4H-pyrazolo[1,5-a]pyrazine-5-carboxamide]	0.3 µM	
CC(=O)N1CCN(c2cnn3c2CN(C(=O)Nc2cc(F)c(F)c(F)c2)[C@@H](C)C3)S(=O)(=O)C1 [Example 15, (6S)-3-(5-acetyl-1,1-dioxo-1,2,5-thiadiazinan-2-yl)-6-methyl-N-(3,4,5-trifluorophenyl)-6,7-dihydro-4H-pyrazolo[1,5-a]pyrazine-5-carboxamide]	0.026 µM	
C[C@H]1Cn2ncc(N3CCCNS3(=O)=O)c2CN1C(=O)Nc1cc(F)c(F)c(F)c1 [Example 27, (6S)-3-(1,1-dioxo-1,2,6-thiadiazinan-2-yl)-6-methyl-N-(3,4,5-trifluorophenyl)-6,7-dihydro-4H-pyrazolo[1,5-a]pyrazine-5-carboxamide]	0.044 µM	
CC1CCS(=O)(=O)N1c1cnn2c1CN(C(=O)Nc1cc(F)c(F)c(F)c1)[C@@H](C)C2 (stereo partly drawn) [Example 16, (6S)-6-methyl-3-(3-methyl-1,1-dioxo-1,2-thiazolidin-2-yl)-N-(3,4,5-trifluorophenyl)-6,7-dihydro-4H-pyrazolo[1,5-a]pyrazine-5-carboxamide]	0.009 µM	
CC1C(O)CS(=O)(=O)N1c1cnn2c1CN(C(=O)Nc1cc(F)c(F)c(F)c1)[C@@H](C)C2 (stereo partly drawn) [Example 28-1, (6S)-3-(4-hydroxy-3-methyl-1,1-dioxo-1,2-thiazolidin-2-yl)-6-methyl-N-(3,4,5-trifluorophenyl)-6,7-dihydro-4H-pyrazolo[1,5-a]pyrazine-5-carboxamide]	0.021 µM	
Cc1cc(NC(=O)N2Cc3c(N4CCCS4(=O)=O)cnn3C[C@@H]2C)ccc1F [Example 4, (6S)-3-(1,1-dioxo-1,2-thiazolidin-2-yl)-N-(4-fluoro-3-methyl-phenyl)-6-methyl-6,7-dihydro-4H-pyrazolo[1,5-a]pyrazine-5-carboxamide]	0.006 µM	
C[C@H]1Cn2ncc(N3CCCS3(=O)=O)c2CN1C(=O)Nc1ccc(Cl)c(F)c1 [Example 3, (6S)—N-(4-chloro-3-fluoro-phenyl)-3-(1,1-dioxo-1,2-thiazolidin-2-yl)-6-methyl-6,7-dihydro-4H-pyrazolo[1,5-a]pyrazine-5-carboxamide]	0.036 µM	
COC1CS(=O)(=O)N(c2cnn3c2CN(C(=O)Nc2cc(F)c(F)c(F)c2)[C@@H](C)C3)C1C (stereo partly drawn) [Example 31, (6S)-3-(4-methoxy-3-methyl-1,1-dioxo-1,2-thiazolidin-2-yl)-6-methyl-N-(3,4,5-trifluorophenyl)-6,7-dihydro-4H-pyrazolo[1,5-a]pyrazine-5-carboxamide]	0.0097 µM	
C[C@H]1Cn2ncc(N3CCCS3(=O)=O)c2CN1C(=O)Nc1ccsc1 [Example 10, (6S)-3-(1,1-dioxo-1,2-thiazolidin-2-yl)-6-methyl-N-(3-thienyl)-6,7-dihydro-4H-pyrazolo[1,5-a]pyrazine-5-carboxamide]	0.57 µM	
C[C@H]1Cn2ncc(N3CC(O)CS3(=O)=O)c2CN1C(=O)Nc1cc(F)c(F)c(F)c1 (stereo partly drawn) [Example 18, (6S)-3-(4-hydroxy-1,1-dioxo-1,2-thiazolidin-2-yl)-6-methyl-N-(3,4,5-trifluorophenyl)-6,7-dihydro-4H-pyrazolo[1,5-a]pyrazine-5-carboxamide]	0.012 µM	
CC1C(Oc2ncccn2)CS(=O)(=O)N1c1cnn2c1CN(C(=O)Nc1cc(F)c(F)c(F)c1)[C@@H](C)C2 (stereo partly drawn) [Example 30, (6S)-6-methyl-3-(3-methyl-1,1-dioxo-4-pyrimidin-2-yloxy-1,2-thiazolidin-2-yl)-N-(3,4,5-trifluorophenyl)-6,7-dihydro-4H-pyrazolo[1,5-a]pyrazine-5-carboxamide]	0.0035 µM	
C[C@H]1Cn2ncc(N3CC(c4ccccc4C(=O)O)CS3(=O)=O)c2CN1C(=O)Nc1cc(F)c(F)c(F)c1 (stereo partly drawn) [Example 36, 2-[2-[(6S)-6-methyl-5-[(3,4,5-trifluorophenyl)carbamoyl]-6,7-dihydro-4H-pyrazolo[1,5-a]pyrazin-3-yl]-1,1-dioxo-1,2-thiazolidin-4-yl]benzoic acid]	0.017 µM	
C[C@H]1Cn2ncc(N3CCS3(=O)=O)c2CN1C(=O)Nc1cc(F)c(F)c(F)c1 [Example 25, (6S)-3-(1,1-dioxothiazetidin-2-yl)-6-methyl-N-(3,4,5-trifluorophenyl)-6,7-dihydro-4H-pyrazolo[1,5-a]pyrazine-5-carboxamide]	0.14 µM	
CC1NS(=O)(=O)N(c2cnn3c2CN(C(=O)Nc2cc(F)c(F)c(F)c2)[C@@H](C)C3)[C@H]1C (stereo partly drawn) [Example 23, (6S)-3-[(3S)-3,4-dimethyl-1,1-dioxo-1,2,5-thiadiazolidin-2-yl]-6-methyl-N-(3,4,5-trifluorophenyl)-6,7-dihydro-4H-pyrazolo[1,5-a]pyrazine-5-carboxamide]	0.052 µM	
CC1Cn2nnc(N3CCCS3(=O)=O)c2CN1C(=O)Nc1cc(F)c(F)c(F)c1 (single isomer, unassigned) [Example 33-1, 3-(1,1-dioxo-1,2-thiazolidin-2-yl)-6-methyl-N-(3,4,5-trifluorophenyl)-6,7-dihydro-4H-triazolo[1,5-a]pyrazine-5-carboxamide]		0.024 µM
CC1C(O)CS(=O)(=O)N1c1cnn2c1CN(C(=O)Nc1cc(F)c(F)c(F)c1)[C@@H](C)C2 (stereo partly drawn) [Example 28-2, (6S)-3-(4-hydroxy-3-methyl-1,1-dioxo-1,2-thiazolidin-2-yl)-6-methyl-N-(3,4,5-trifluorophenyl)-6,7-dihydro-4H-pyrazolo[1,5-a]pyrazine-5-carboxamide]		0.018 µM
